Laboratory results published in patent publication US20250115582A1, “MOLECULAR GLUE DEGRADERS AND METHODS OF USING THE SAME” (Monte Rosa Therapeutics, Inc., priority 2022, published 2025).

Target: T1, CK1α (Homo sapiens, UniProt P48729+Q96SW2)
T1 construct: HEK293 clonal line with CRISPR KI HiBiT tag on CSNK1A1; host or cells: HEK293 clonal line, CRISPR HiBiT knock-in at CSNK1A1, stably expressing LgBiT
Assay: CK1α NanoBiT assay (HiBiT-tagged CSNK1A1 in HEK293 clonal line)
Format: cell-based
Settings: HEK293 HiBiT-CSNK1A1/LgBiT cells, 24 h incubation, luminescence
Experimental: HEK293 clonal line with CRISPR KI HiBiT tag on CSNK1A1 and stably expressing LgBiT protein was obtained from Promega (Madison, WI). Cells were plated at 5000 cells per well using Multiflo (BioTek) in 384-well white solid bottom plates (Corning, 3570BC) in […] volume in DMEM media (DMEM, high glucose, HEPES, no phenol red (ThermoFisher Scientific, 21063029)) containing 10% FBS (Corning, 35-075-CV), 1% Penicillin/Streptomycin ((ThermoFisher Scientific, 15140-122), and 0.2% Endurazine (Nano-Glo Endurazine Live Cell Substrate (Promega, N2571)). Cells were incubated for 16 hours at 37C, 5% CO2. Depending on experiment 25 or 75 nL of a compound at 10 mM were added into the plate using an Echo®650 liquid handler (Labcyte) to achieve final concentration of […] in wells. Cells were incubated at 37° C., 5% CO2 for 24 hours followed by signal was read on Pherastar FSX using “LUM plus” optic module.
Data analysis was performed using Scinamic (Scinamic, Cambridge, MA).
Luminescence response (R) was calculated by the formula: response=100*(S−N)/(P−N), where S is the signal of the well, N and P the mean negative and positive control values, respectively, of the same plate. The luminescence response was then fitted in Scinamic using a 3-parameter agonist logistic fit (hillslope=1, EC50>0, top/bottom unconstrained).
DC50 data are reported in Table 2 for compounds in Table 1. In Table 2 below, According to the code, A represents a DC50 value of ≤0.1 μM, B represents a DC50 value>0.1 μM and ≤1 μM, C represents an DC50 value>1 μM.

T1 sequence (P48729 whole entry): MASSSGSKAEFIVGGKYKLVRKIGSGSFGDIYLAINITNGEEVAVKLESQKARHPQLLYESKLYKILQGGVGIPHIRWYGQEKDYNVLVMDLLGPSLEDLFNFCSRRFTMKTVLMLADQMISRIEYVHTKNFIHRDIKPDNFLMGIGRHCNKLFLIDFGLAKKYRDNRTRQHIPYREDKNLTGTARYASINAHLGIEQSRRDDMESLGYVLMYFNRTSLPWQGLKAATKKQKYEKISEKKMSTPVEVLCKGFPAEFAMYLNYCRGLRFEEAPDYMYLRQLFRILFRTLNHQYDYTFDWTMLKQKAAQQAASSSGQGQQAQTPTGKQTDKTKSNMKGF
T1 sequence (Q96SW2 whole entry): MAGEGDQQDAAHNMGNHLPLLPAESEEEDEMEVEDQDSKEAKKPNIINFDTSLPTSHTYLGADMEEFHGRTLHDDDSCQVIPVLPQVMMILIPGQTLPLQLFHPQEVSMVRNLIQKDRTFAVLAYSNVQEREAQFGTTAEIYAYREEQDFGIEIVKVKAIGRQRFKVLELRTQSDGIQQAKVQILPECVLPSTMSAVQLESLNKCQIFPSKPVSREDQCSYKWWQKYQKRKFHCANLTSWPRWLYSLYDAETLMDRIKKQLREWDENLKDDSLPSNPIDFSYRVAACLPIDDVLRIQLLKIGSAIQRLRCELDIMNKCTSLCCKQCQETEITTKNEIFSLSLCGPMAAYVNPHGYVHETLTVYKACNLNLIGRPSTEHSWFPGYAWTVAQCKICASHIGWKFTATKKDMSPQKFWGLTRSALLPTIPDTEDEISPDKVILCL
T1 sequence (Q16531 2-1140 partner limits assumed): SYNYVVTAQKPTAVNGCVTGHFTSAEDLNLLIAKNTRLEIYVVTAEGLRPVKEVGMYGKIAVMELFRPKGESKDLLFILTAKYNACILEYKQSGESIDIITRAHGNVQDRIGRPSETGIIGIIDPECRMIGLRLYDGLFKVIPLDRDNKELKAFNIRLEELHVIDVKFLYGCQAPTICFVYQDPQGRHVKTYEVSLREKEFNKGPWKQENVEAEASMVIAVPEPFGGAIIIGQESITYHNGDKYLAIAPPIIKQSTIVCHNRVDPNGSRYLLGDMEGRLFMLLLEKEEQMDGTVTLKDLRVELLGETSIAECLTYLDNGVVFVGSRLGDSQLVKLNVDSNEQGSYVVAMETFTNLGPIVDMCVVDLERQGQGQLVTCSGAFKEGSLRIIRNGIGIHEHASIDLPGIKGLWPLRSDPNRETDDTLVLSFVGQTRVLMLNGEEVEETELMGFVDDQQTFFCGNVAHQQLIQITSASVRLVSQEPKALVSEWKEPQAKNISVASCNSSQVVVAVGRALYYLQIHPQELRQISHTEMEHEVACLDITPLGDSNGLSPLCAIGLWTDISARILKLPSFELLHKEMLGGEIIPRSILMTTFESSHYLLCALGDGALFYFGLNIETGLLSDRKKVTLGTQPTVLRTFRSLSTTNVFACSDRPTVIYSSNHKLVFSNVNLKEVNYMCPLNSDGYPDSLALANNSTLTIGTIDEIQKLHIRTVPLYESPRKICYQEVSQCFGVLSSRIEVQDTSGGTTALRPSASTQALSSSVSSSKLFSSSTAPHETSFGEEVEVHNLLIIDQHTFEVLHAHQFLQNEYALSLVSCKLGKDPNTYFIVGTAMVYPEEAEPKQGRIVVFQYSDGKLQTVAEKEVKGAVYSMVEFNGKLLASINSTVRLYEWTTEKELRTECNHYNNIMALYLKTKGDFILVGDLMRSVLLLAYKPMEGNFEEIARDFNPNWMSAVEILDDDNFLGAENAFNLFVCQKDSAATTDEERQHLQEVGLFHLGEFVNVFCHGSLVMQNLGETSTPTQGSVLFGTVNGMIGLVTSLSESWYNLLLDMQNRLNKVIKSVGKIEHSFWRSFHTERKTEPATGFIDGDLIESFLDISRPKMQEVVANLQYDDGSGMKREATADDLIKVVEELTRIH

Structure (SMILES)	DC50
O=C1CCC(N2Cc3cc(NC(=O)C4(C(F)(F)F)CCN(c5ccccn5)C4)ccc3C2=O)C(=O)N1 (centres unmarked) [Compound 150]	0.1 to 1 µM
O=C1CCC(N2Cc3cc(NC(=O)Cc4ccccc4)ccc3C2=O)C(=O)N1 (centres unmarked) [Compound 151]	0.1 to 1 µM
Cc1ccc(CC(=O)Nc2ccc3c(c2)CN(C2CCC(=O)NC2=O)C3=O)cn1 (centres unmarked) [Compound 152]	> 1 µM
CN(C(=O)c1ccc(Cl)cc1)c1ccc2c(c1)CN(C1CCC(=O)NC1=O)C2=O (centres unmarked) [Compound 153]	> 1 µM

More lines, now with the values ahead:

DC50	Structure (SMILES)
0.1 to 1 µM	O=C1CCC(N2Cc3cc(NC(=O)c4ccccc4CC(F)(F)F)ccc3C2=O)C(=O)N1 (centres unmarked) [Compound 113, N-(2-(2,6-dioxopiperidin-3-yl)-1-oxoisoindolin-5-yl)-2-(2,2,2-trifluoroethyl)benzamide]
> 1 µM	Cc1cc(C(=O)Nc2ccc3c(c2)CN(C2CCC(=O)NC2=O)C3=O)ccn1 (centres unmarked) [Compound 138, N-(2-(2,6-dioxopiperidin-3-yl)-1-oxoisoindolin-5-yl)-2-methylisonicotinamide]
< 0.1 µM	O=C1CCC(N2Cc3cc(NC(=O)c4cccc(Cl)c4)ccc3C2=O)C(=O)N1 (centres unmarked) [Compound 145]
0.1 to 1 µM	COc1ccc(CC(=O)Nc2ccc3c(c2)CN(C2CCC(=O)NC2=O)C3=O)cc1 (centres unmarked) [Compound 149, N-(2-(2,6-dioxopiperidin-3-yl)-1-oxoisoindolin-5-yl)-2-(4-methoxyphenyl)acetamide]
